Measurements as given in patent US10300151B2, “Methods and systems for noninvasive fluorescence-based functional imaging of kidneys” (Board of Regents, The University of Texas System, priority 2015, dated 2019).
Entries after “also recorded” stand apart in the source; their conditions may differ.

Experiments:
kidneys of Balb/c mice [1] = assay: Invasive fluorescence kidney imaging of skin-removed mice after i.v. injection of fluorophore; assay type: in vivo, mouse; settings: for time at which skin fluorescence intensity surpasses left and right kidney intensity: kidneys surgically exposed; for time of maximum skin fluorescence intensity: FIG. 26 (Cy7: FIG. 10); for peak skin fluorescence intensity as percentage of maximum kidney fluorescence intensity: kidney fluorescence from invasive imaging data, FIG. 26
Experimental: Invasive and noninvasive imaging of normal mice, UUO mice and sham mice were performed using the following protocol. The protocol for invasive and noninvasive imaging differed in only in that for invasive imaging, the mouse's kidneys are exposed via removal of the mouse's back skin. […] As shown in panel a, the kidneys are paired bean-shaped organs lying on either side of the vertebral column. The right kidney (RK) of a mouse is usually slightly higher than it left kidney (LK). Since the kidneys locate retroperitoneally against the dorsal body wall, LK (shown in panel b) and RK (shown in panel c) can be exposed once the back skin above the kidneys was removed. The interference of skin on kidney imaging can be avoided in such an invasive way. Prior to imaging, hair-removed Balb/c mice were anesthetized using 3% isoflurane. A catheter filled with PBS was inserted into each mouse's tail vein. The mouse, along with its tail vein catheter, was placed in supine position on the stage of fluorescence imaging system, with the mouse's back facing the excitation light and charge-coupled device (CCD) camera. Fluorescence imaging of the each of mice proceeded as follows. Bright-field and fluorescence images of the each mouse was taken before injection with fluorophores. When its breathing rate decreased to 10-14 times per 15 s, the mouse was injected with 200 μL of a fluorophore solution. The fluorophore solutions used were PBS solutions of either an organic dye (Cy3, Cy7, or IRDye 800CW) or GS-AuNPs. The concentrations of Cy3, Cy7 and IRDye 800CW were 100, 10, and 10 μM, respectively, and these solutions were filtered through a 0.02 μm filter before injection. The solution of NIR-emitting GS-AuNPs contained 10 mg/mL gold atom as determined by inductively coupled plasma mass spectrometry (ICP-MS). Once the designated fluorophore solution was injected, whole body fluorescence images of each mouse were collected consecutively until 60 minutes post-injection. To ensure reproducible results, each mouse's anesthesia status was maintained at constant level before injection of fluorophores. Unlike clinical renographic procedures, no diuretic agents were used, and the animals were not hydrated prior to fluorescence imaging. The parameters for acquiring the fluorescence images were shown as follows: Cy3, excitation at 550/10 nm, emission at 600/20 nm, exposure time of 2 s, no binning (FIGS. 4, 6, and 7); Cy7, excitation of 710/10 nm, emission of 790/20 nm, exposure time of 5 s, 2×2 binning (FIGS. 5, 8, and 9); IRDye 800CW, excitation of 710/10 nm, emission of 790/20 nm, 2×2 binning, exposure time of 5 s (FIGS. 21 and 55); GS-AuNPs, excitation of 710/10 nm, emission of 830/20 nm; exposure time of 30 s, 2×2 binning (FIGS. 24, 36, and 54). Regions of interest (ROIs) designated “kidney areas” were defined around the left and right kidneys on the fluorescence image showing high kidney intensity. Four ROIs designated “surrounding tissue areas” were drawn in proximity to the each kidney; the mean values of these four ROIs were considered the “mean intensity of surrounding tissue area” for the respective kidney. The percentage of kidney contrast enhancement was calculated as follows: [formula] For GS-AuNPs, the ROIs of “skin” were chosen from the back area close to the tail, so as to avoid the influence of bright kidneys. The time-dependent fluorescence intensity of skin (or kidneys) and percentage of kidney contrast enhancement (FIGS. 10-14, 22, 23, 25, 26, 37, 56, and 57). The curves were fitted with exponential functions to generate the kinetics of kidney contrast change or the kinetics of accumulation and clearance of the fluorophores in the skin and kidneys (FIGS. 10, 22, and 23). Deconvolution and parametric analysis of the kidney TFICs were performed using Origin 8 (FIGS. 27-35; Tables 1 and 2). Pathological Analysis

kidneys of Balb/c mice [2] = assay: Noninvasive whole-body fluorescence kidney imaging of intact mice after i.v. injection of fluorophore; assay type: in vivo, mouse; settings: for excretion route: fluorescence from bladder at 65 min / intestines after 10 min p.i.; for skin clearance half-life: observed during 60 min p.i.; for fraction of first phase of skin intensity increase / fraction of second phase of skin intensity increase / skin fluorescence intensity increase half-life, first phase / skin fluorescence intensity increase half-life, second phase: two-phase exponential growth, FIG. 10; for duration of kidney contrast/visualisation in noninvasive imaging: after i.v. injection
Experimental: Invasive and noninvasive imaging of normal mice, UUO mice and sham mice were performed using the following protocol. The protocol for invasive and noninvasive imaging differed in only in that for invasive imaging, the mouse's kidneys are exposed via removal of the mouse's back skin.
Prior to imaging, hair-removed Balb/c mice were anesthetized using 3% isoflurane. A catheter filled with PBS was inserted into each mouse's tail vein. The mouse, along with its tail vein catheter, was placed in supine position on the stage of fluorescence imaging system, with the mouse's back facing the excitation light and charge-coupled device (CCD) camera.
Fluorescence imaging of the each of mice proceeded as follows. Bright-field and fluorescence images of the each mouse was taken before injection with fluorophores. When its breathing rate decreased to 10-14 times per 15 s, the mouse was injected with 200 μL of a fluorophore solution. The fluorophore solutions used were PBS solutions of either an organic dye (Cy3, Cy7, or IRDye 800CW) or GS-AuNPs. The concentrations of Cy3, Cy7 and IRDye 800CW were 100, 10, and 10 μM, respectively, and these solutions were filtered through a 0.02 μm filter before injection. The solution of NIR-emitting GS-AuNPs contained 10 mg/mL gold atom as determined by inductively coupled plasma mass spectrometry (ICP-MS). Once the designated fluorophore solution was injected, whole body fluorescence images of each mouse were collected consecutively until 60 minutes post-injection. To ensure reproducible results, each mouse's anesthesia status was maintained at constant level before injection of fluorophores. Unlike clinical renographic procedures, no diuretic agents were used, and the animals were not hydrated prior to fluorescence imaging.
The parameters for acquiring the fluorescence images were shown as follows: Cy3, excitation at 550/10 nm, emission at 600/20 nm, exposure time of 2 s, no binning (FIGS. 4, 6, and 7); Cy7, excitation of 710/10 nm, emission of 790/20 nm, exposure time of 5 s, 2×2 binning (FIGS. 5, 8, and 9); IRDye 800CW, excitation of 710/10 nm, emission of 790/20 nm, 2×2 binning, exposure time of 5 s (FIGS. 21 and 55); GS-AuNPs, excitation of 710/10 nm, emission of 830/20 nm; exposure time of 30 s, 2×2 binning (FIGS. 24, 36, and 54).
Regions of interest (ROIs) designated “kidney areas” were defined around the left and right kidneys on the fluorescence image showing high kidney intensity. Four ROIs designated “surrounding tissue areas” were drawn in proximity to the each kidney; the mean values of these four ROIs were considered the “mean intensity of surrounding tissue area” for the respective kidney. The percentage of kidney contrast enhancement was calculated as follows:
[formula] For GS-AuNPs, the ROIs of “skin” were chosen from the back area close to the tail, so as to avoid the influence of bright kidneys. The time-dependent fluorescence intensity of skin (or kidneys) and percentage of kidney contrast enhancement (FIGS. 10-14, 22, 23, 25, 26, 37, 56, and 57). The curves were fitted with exponential functions to generate the kinetics of kidney contrast change or the kinetics of accumulation and clearance of the fluorophores in the skin and kidneys (FIGS. 10, 22, and 23). Deconvolution and parametric analysis of the kidney TFICs were performed using Origin 8 (FIGS. 27-35; Tables 1 and 2). Pathological Analysis

kidneys of UUO mice = assay: Noninvasive fluorescence renography in unilateral ureter obstruction (UUO) and sham mice; assay type: in vivo, mouse
Source text: To obtain unilateral […] obstruction (UUO) mice, male Balb/c mice (6-8 weeks old, with about 20 g) were anesthetized with isoflurane. For each mouse, the left kidney was exposed an incision on the left flank, and the left ureter was obstructed completely near the renal pelvis using a nonabsorbable suture. For mice in the sham group, the left ureter was exposed using the same surgical procedure but ureter ligation was not performed. Female Balb/c mice (8-10 weeks old, weighing about 20 g) were used as normal (non-UUO) mice for other experiments, such as those shown in FIGS. 4-19. The hair on the Balb/c mice was removed using hair removal lotion at least 24 h before the imaging experiments.
Fluorescence imaging of the each of mice proceeded as follows. Bright-field and fluorescence images of the each mouse was taken before injection with fluorophores. […] The solution of NIR-emitting GS-AuNPs contained 10 mg/mL gold atom as determined by inductively coupled plasma mass spectrometry (ICP-MS). Once the designated fluorophore solution was injected, whole body fluorescence images of each mouse were collected consecutively until 60 minutes post-injection. […] Unlike clinical renographic procedures, no diuretic agents were used, and the animals were not hydrated prior to fluorescence imaging. […]

[3] = in mice, blood; cited from earlier work
[4] = 0.6 min p.i., noninvasive, N=3, mean±s.d.
[5] = 60 min p.i., noninvasive, N=3, mean±s.d.
[6] = noninvasive, single exponential decay

CCN1C(=CC=CC2=[N+](CCCCCC(=O)O)c3ccc(S(=O)(=O)O)cc3C2(C)C)C(C)(C)c2cc(S(=O)(=O)[O-])ccc21 [Cy3, disulfo-Cy3 carboxylic acid]
time at which skin fluorescence intensity surpasses left and right kidney intensity (kidneys of Balb/c mice [1]; invasive imaging): 1.5 min p.i. | excretion route (kidneys of Balb/c mice [2]): can be excreted into urine through renal clearance | contrast enhancement of noninvasively imaged mouse kidney (kidneys of Balb/c mice [2]; intact mouse, Ex/Em 550/600 nm): failed to enhance contrast | skin clearance half-life (kidneys of Balb/c mice [2]): 56.5 min | fraction of first phase of skin intensity increase (kidneys of Balb/c mice [2]): 18.1% | fraction of second phase of skin intensity increase (kidneys of Balb/c mice [2]): 81.9% | skin fluorescence intensity increase half-life, first phase (kidneys of Balb/c mice [2]): 0.2 min | skin fluorescence intensity increase half-life, second phase (kidneys of Balb/c mice [2]): 2.8 min

CC1(C)C(/C=C/C2=C(Oc3ccc(S(=O)(=O)O)cc3)C(=C/C=C3/N(CCCCS(=O)(=O)O)c4ccc(S(=O)(=O)[O-])cc4C3(C)C)/CCC2)=[N+](CCCCCC(=O)O)c2ccc(S(=O)(=O)O)cc21 [IRDye 800CW, IRDye 800CW carboxylate]
time-dependent intensity curves in sham vs UUO mice (kidneys of UUO mice; LK, RK and skin, FIGS. 56-57): very similar profiles of time-dependent intensity curve in sham and UUO mice | visibility of kidneys in UUO mouse (kidneys of UUO mice; noninvasive imaging, UUO mouse): both UUO LK and RK disappeared after 5 min p.i. | elimination half-life (t1/2β) [3]: 58.8 ± 4.8 min | time of maximum skin fluorescence intensity (kidneys of Balb/c mice [1]): 25 min p.i. | clearance half-life from kidney, LK, first component (kidneys of Balb/c mice [1]; invasive imaging, FIG. 23): 4.3 min | clearance half-life from kidney, LK, second component (kidneys of Balb/c mice [1]; invasive imaging, FIG. 23): 28.0 min | clearance half-life from kidney, RK, first component (kidneys of Balb/c mice [1]; invasive imaging, FIG. 23): 4.7 min | clearance half-life from kidney, RK, second component (kidneys of Balb/c mice [1]; invasive imaging, FIG. 23): 18.9 min | fraction of first clearance component, LK (kidneys of Balb/c mice [1]; invasive imaging, FIG. 23): 50.1% | fraction of first clearance component, RK (kidneys of Balb/c mice [1]; invasive imaging, FIG. 23): 46.0% | fraction of second clearance component, LK (kidneys of Balb/c mice [1]; invasive imaging, FIG. 23): 49.9% | fraction of second clearance component, RK (kidneys of Balb/c mice [1]; invasive imaging, FIG. 23): 54.0% | peak skin fluorescence intensity as percentage of maximum kidney fluorescence intensity (kidneys of Balb/c mice [1]): 75.5±9.3% | percentage contrast enhancement of left kidney (LK) (kidneys of Balb/c mice [2]; [4]): 67.6±7.1% | percentage contrast enhancement of right kidney (RK) (kidneys of Balb/c mice [2]; [4]): 49.9±9.0% | percentage of contrast enhancement, LK (kidneys of Balb/c mice [2]; [5]): −4.7±0.8% | percentage of contrast enhancement, RK (kidneys of Balb/c mice [2]; [5]): −4.8±5.1% | duration of kidney contrast/visualisation in noninvasive imaging (kidneys of Balb/c mice [2]; intact mouse): less than 5 min | time at which skin fluorescence intensity is halfway to saturation (kidneys of Balb/c mice [2]; noninvasive imaging, FIG. 22): 4.1 min | decay half-life of percentage contrast enhancement, LK (kidneys of Balb/c mice [2]; [6]): 4.2 min | decay half-life of percentage contrast enhancement, RK (kidneys of Balb/c mice [2]; [6]): 4.5 min

CCN1C(=CC=CC=CC=CC2=[N+](CCCCCC(=O)O)c3ccc(S(=O)(=O)O)cc3C2(C)C)C(C)(C)c2cc(S(=O)(=O)[O-])ccc21 [Cy7, disulfo-Cy7 carboxylic acid]
time of maximum skin fluorescence intensity (kidneys of Balb/c mice [1]): 35 min p.i. | time at which skin fluorescence intensity surpasses left and right kidney intensity (kidneys of Balb/c mice [1]; invasive imaging): 13.2 min p.i. | peak skin fluorescence intensity as percentage of maximum kidney fluorescence intensity (kidneys of Balb/c mice [1]): 95.3% | duration of kidney contrast/visualisation in noninvasive imaging (kidneys of Balb/c mice [2]; intact mouse): less than 10 min | excretion route (kidneys of Balb/c mice [2]): can be excreted into urine through renal clearance; also recorded: can also be excreted through a hepatic route | skin clearance half-life (kidneys of Balb/c mice [2]): No clearance of Cy7 from the skin was observed during 60 min p.i. | fraction of first phase of skin intensity increase (kidneys of Balb/c mice [2]): 33.5% | fraction of second phase of skin intensity increase (kidneys of Balb/c mice [2]): 66.5% | skin fluorescence intensity increase half-life, first phase (kidneys of Balb/c mice [2]): 1.5 min | skin fluorescence intensity increase half-life, second phase (kidneys of Balb/c mice [2]): 7.4 min
